In one test the test system is Arabidopsis thaliana. The test is described as follows: Root phenotyping: primary root growth, lateral root capacity/branching, lateral root primordia. Format: in vivo.
In test [1] the test system is lateral root clock (pDR5:LUC). Kind of test: Lateral root clock oscillation amplitude (pDR5:LUC reporter). Format: in vivo, Arabidopsis thaliana. The settings on record: for amplitude of the lateral root clock relative to D15 treatment (rescue of D15 inhibition of lateral root initiation): roots treated with D15 for several days, then 10 μM apocarotenoid added, FIG. 4A.

The next test addresses T1, CCD8 (Arabidopsis thaliana, UniProt Q8VY26).
T1 sequence (Q8VY26 57-570): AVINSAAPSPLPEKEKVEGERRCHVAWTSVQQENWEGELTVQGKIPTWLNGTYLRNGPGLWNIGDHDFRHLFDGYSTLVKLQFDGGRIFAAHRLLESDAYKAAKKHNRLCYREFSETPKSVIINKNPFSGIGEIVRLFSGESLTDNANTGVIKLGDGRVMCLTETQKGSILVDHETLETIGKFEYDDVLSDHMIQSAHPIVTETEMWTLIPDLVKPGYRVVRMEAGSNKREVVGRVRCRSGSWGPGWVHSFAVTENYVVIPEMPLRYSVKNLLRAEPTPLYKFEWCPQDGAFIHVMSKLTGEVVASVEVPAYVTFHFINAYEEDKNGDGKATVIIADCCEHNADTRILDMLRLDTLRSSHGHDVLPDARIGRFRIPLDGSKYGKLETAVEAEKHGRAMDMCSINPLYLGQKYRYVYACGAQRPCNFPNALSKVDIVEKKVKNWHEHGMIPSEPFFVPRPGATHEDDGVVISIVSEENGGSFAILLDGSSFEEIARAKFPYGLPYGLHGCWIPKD
As to conditions: stated as known; cited from earlier work.

A further test has as its system Arabidopsis tissue. Kind of test: Extraction, derivatization and HPLC-MS analysis of apocarotenoid levels in plant tissue upon D15 treatment. The settings on record: D15 treated plants, whole plant; FIG. 2B. It counts as in vivo, Arabidopsis thaliana.
The test system of another test is Arabidopsis roots. Kind of test: Merocyanine aldehyde RBP reporter fluorescence in Arabidopsis roots. It counts as in vivo, Arabidopsis thaliana. The settings on record: D15 treatment.
Where [2] appears, read: co-treatment with 500 nM Apo14 and D15, FIG. 4B.
Where [3] appears, read: co-treatment with 1 μM retinal and 125 μM D15, FIG. 4C.

These results are taken from US12144344B2, “Compositions and methods for modulating root growth” (DUKE UNIVERSITY, priority 2018, dated 2024).

For `CC1=C(/C=C/C(C)=C/C=C/C(C)=C/C=C/C=O)C(C)(C)CCC1` [Apo14, apo-14-carotenal], in the test on Arabidopsis thaliana (setting [2]), the “rescue of D15 inhibition of lateral root development (lateral root capacity)” value was “fully rescue” and the “rescue of D15 inhibition of primary root growth” value was “fully rescue”. Moreover, the “amplitude of the lateral root clock relative to D15 treatment (rescue of D15 inhibition of lateral root initiation)” value in test [1] is “significantly increased”.

Take `CC1=C(/C=C/C(C)=C/C=C/C(C)=C/C=C/C=C(C)/C=C/C=O)C(C)(C)CCC1` [Apo-10-carotenal, apo-10-carotenal]: in test [1], the “amplitude of the lateral root clock relative to D15 treatment (rescue of D15 inhibition of lateral root initiation)” value is given as “partially rescue”.

Turning to `CC1=C(/C=C/C(C)=C/C=C/C(C)=C/C=C/C=C(\C)C=O)C(C)(C)CCC1` [apo-12-carotenal], the “amplitude of the lateral root clock relative to D15 treatment (rescue of D15 inhibition of lateral root initiation)” value in test [1] is “partially rescue”.

Regarding `CC1=C(/C=C/C(C)=C/C=C/C(C)=C/C=O)C(C)(C)CCC1` [retinal, apo-16-carotenal], in the test with Arabidopsis thaliana (setting [3]), the “rescue of D15 inhibition of lateral root development (lateral root branching)” value is reported as “fully rescue” and the “rescue of D15 inhibition of primary root growth” value was “fully rescue”. In addition, the primary root length entry with Arabidopsis thaliana (retinal alone, absence of D15) was “did not affect”. In addition, the “number of lateral root primordia” value in the test with Arabidopsis thaliana (retinal alone, absence of D15, FIG. 4D) is “significantly increase”. The “amplitude of the lateral root clock relative to D15 treatment (rescue of D15 inhibition of lateral root initiation)” value in test [1] is given as “significantly increased”.

Regarding “N-(4-fluorobenzyl)-methoxycinnamic hydroxamic acid [D15]”, the “root growth and lateral root organogenesis” value with Arabidopsis thaliana (D15 treatment) is “defects”. Further, the CCD8 inhibition result on CCD8 is reported as “can inhibit”. In the test on Arabidopsis tissue, the “levels of more hydrophilic apocarotenoids such as beta-cyclocitral and beta-ionone” value was “did not affect”; the “levels of retinal as well as the related apocarotenoids” value was “reduced”. The “merocyanine aldehyde fluorescence in the root meristem” value with Arabidopsis roots is on record as “reduced”. The “number of merocyanine aldehyde pulses” value in the test with Arabidopsis roots (elongation and differentiation zones, FIG. 1E) is “significantly reduced”. In addition, the “amplitude of oscillations in pDR5:LUC marker line” value in test [1] (D15-treated plants, FIG. 3) is recorded as “significantly decreased”.
